Test results reported in patent US8785457B2 (Cellzome Limited, priority 2009, dated 2014).
pIC50: −log10 of the molar value.

What was measured:
[1] = molecular target: T1, DNA-dependent protein kinase (DNA-PK) (Homo sapiens, UniProt P78527); assay: kinobeads assay, DNA-PK; type: binding; settings: Further Kinobeads Data; read-out: DNAPK
T1 construct: endogenous in cells; host or cells: Jurkat, clone E6-1 (ATCC TIB-152) cell lysate
Procedure, shortened: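 IC50 values came from dose-response curves after test compound (1:3 series) competed with an immobilized phenylmorpholin-chromen affinity matrix for kinases in Jurkat lysate at 5 mg/mL protein. Eluted captured DNA-PK and PI3Kδ were measured by specific-antibody dot blot and infrared imaging. Buffer was Tris pH 7.4, NP40, MgCl2, NaCl, vanadate, DTT, NaF.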

[2] = molecular target: T2, mTOR (Homo sapiens, UniProt P42345); assay: mTOR kinobeads assay (competitive binding in Jurkat cell lysate, immunodetection); settings: Further Kinobeads Data; read-out: mTor
T2 construct: endogenous in cells; host or cells: Jurkat, clone E6-1 (ATCC TIB-152) cell lysate
Procedure, shortened: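 IC50 derived from dose-response curves of mTOR captured on immobilized phenylmorpholin-chromen beads, detected by antibody dot blot with infrared fluorescence.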

T1 sequence (P78527 whole entry): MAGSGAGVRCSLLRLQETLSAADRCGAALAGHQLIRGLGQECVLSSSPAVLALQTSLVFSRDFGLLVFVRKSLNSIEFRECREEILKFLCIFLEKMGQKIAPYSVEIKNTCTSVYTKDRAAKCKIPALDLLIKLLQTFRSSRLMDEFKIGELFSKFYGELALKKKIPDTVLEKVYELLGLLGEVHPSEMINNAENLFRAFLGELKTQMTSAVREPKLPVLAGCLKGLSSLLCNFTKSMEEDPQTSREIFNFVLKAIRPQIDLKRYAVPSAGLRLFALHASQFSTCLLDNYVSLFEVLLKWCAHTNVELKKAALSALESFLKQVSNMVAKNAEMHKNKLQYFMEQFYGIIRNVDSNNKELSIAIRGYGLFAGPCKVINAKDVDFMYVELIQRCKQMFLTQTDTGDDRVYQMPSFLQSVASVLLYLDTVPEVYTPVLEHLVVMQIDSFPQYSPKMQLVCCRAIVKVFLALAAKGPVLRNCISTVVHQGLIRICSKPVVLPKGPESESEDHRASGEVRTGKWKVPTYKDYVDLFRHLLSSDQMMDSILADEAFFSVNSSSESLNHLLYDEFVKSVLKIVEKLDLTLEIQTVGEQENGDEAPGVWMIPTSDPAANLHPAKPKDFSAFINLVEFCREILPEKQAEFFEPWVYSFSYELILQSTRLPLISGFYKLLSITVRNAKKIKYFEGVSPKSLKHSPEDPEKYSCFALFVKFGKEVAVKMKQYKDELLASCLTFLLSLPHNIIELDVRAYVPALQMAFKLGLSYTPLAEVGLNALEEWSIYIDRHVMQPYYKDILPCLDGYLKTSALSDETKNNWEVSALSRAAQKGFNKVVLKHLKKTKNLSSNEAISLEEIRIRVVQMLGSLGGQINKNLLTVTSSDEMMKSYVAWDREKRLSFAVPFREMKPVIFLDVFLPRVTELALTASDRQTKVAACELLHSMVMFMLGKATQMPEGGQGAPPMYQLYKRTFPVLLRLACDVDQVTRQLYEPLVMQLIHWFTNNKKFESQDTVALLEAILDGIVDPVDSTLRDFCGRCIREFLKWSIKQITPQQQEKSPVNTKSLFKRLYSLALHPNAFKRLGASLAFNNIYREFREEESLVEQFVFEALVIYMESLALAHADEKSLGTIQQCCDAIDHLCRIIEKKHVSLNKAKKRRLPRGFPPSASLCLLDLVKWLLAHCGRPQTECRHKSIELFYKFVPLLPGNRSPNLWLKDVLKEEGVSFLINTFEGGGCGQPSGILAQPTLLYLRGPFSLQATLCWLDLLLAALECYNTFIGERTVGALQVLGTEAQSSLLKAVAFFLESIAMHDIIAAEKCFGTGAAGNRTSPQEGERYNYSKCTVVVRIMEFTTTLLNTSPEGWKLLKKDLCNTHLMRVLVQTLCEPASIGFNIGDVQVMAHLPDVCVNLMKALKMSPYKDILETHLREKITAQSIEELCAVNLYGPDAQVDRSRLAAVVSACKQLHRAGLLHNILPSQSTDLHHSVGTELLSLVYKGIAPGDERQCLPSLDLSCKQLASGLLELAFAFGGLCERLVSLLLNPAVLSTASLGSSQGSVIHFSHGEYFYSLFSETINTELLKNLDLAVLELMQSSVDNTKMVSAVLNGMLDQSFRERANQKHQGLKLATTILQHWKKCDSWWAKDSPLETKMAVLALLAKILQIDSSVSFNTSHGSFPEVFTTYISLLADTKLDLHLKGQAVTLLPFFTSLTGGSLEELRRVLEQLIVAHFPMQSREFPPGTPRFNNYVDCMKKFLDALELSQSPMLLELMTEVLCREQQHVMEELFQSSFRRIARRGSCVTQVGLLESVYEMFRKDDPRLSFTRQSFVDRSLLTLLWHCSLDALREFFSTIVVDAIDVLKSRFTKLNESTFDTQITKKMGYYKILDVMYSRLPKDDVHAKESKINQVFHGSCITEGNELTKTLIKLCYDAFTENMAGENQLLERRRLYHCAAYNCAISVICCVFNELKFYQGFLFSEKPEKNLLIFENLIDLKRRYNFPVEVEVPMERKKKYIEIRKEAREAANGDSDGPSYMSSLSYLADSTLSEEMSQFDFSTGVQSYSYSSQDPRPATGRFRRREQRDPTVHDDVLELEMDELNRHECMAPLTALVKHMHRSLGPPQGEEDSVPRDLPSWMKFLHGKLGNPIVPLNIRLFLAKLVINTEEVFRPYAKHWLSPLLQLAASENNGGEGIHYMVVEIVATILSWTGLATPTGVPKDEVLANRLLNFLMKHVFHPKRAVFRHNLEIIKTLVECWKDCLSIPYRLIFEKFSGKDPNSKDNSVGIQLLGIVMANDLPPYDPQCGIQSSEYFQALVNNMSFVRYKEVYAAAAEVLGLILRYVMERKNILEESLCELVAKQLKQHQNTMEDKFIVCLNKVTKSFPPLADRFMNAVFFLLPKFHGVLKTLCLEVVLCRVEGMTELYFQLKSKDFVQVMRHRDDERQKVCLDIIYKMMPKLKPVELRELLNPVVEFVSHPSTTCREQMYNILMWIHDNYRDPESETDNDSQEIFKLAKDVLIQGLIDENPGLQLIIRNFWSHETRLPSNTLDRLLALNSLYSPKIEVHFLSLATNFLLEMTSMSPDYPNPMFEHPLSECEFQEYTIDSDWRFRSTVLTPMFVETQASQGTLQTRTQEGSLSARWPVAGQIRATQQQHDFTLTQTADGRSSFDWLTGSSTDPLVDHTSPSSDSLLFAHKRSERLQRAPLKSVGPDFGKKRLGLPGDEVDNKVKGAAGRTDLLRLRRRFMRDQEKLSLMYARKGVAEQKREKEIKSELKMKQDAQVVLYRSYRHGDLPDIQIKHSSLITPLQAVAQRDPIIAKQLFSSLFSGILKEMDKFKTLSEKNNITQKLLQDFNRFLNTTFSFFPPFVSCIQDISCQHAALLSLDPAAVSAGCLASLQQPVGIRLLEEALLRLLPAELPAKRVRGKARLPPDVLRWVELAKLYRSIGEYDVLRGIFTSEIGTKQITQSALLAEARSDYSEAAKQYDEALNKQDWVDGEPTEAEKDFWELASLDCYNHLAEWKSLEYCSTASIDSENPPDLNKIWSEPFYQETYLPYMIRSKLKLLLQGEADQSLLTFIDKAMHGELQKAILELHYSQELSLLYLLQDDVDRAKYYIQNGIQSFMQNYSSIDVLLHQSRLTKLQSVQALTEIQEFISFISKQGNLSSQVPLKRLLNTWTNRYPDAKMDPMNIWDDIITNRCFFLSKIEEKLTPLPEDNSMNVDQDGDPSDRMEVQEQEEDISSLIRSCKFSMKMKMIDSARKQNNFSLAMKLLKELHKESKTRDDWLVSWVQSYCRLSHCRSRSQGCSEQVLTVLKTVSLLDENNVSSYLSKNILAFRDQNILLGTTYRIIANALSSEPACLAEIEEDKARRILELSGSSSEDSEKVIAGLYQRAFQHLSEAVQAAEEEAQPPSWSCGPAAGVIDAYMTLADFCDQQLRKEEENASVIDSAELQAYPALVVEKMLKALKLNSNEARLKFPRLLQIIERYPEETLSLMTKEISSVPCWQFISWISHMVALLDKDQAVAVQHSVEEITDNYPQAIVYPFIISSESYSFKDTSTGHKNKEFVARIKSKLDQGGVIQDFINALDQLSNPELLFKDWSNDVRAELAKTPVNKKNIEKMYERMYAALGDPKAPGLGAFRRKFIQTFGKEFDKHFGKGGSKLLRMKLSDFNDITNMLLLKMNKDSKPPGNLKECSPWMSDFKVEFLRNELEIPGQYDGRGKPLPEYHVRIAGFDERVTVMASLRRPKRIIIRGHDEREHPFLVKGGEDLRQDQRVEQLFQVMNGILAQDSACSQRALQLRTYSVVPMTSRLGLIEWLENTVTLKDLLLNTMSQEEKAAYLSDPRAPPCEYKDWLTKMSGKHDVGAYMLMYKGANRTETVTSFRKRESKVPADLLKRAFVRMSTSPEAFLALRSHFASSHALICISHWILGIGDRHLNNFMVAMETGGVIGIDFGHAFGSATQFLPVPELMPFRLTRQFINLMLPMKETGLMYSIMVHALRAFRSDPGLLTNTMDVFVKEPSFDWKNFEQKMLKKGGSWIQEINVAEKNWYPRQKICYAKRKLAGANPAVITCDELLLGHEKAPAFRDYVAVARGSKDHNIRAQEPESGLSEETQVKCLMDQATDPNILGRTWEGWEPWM

| Structure (SMILES) | pIC50 [1] | pIC50 [2] |
| --- | --- | --- |
| CN1Cc2nc(-c3ccc(NC(=O)NC4CC4)cc3F)nc(N3CCOCC3)c2C1 [Example 159, 1-(Cyclopropyl)-3-(3-fluoro-4-(6-methyl-4-morpholino-6,7-dihydro-5H-pyrrolo[3,4-d]pyrimidin-2-yl)phenyl)urea] | < 5.00 | 6.00 to 7.00 |
| CCNC(=O)Nc1ccc(-c2nc3c(c(N4CCOC[C@@H]4C)n2)CN(C)C3)c(F)c1 [Example 160, (S)-1-ethyl-3-(3-fluoro-4-(6-methyl-4-(3-methylmorpholino)-6,7-dihydro-5H-pyrrolo[3,4-d]pyrimidin-2-yl)phenyl)urea] | < 5.00 | > 7.00 |
| CCNC(=O)Nc1ccc(-c2nc3c(c(N4CCOCC4)n2)CN(C(=O)OC)C3)c(F)c1 [Example 162, methyl 2-(4-(3-ethylureido)-2-fluorophenyl)-4-morpholino-5H-pyrrolo[3,4-d]pyrimidine-6(7H)-carboxylate] | < 5.00 | > 7.00 |
| C[C@H]1COCCN1c1nc(-c2ccc(NC(=O)NC3CC3)cc2F)nc2c1CCNC2 [Example 163, (S)-1-cyclopropyl-3-(3-fluoro-4-(4-(3-methylmorpholino)-5,6,7,8-tetrahydropyrido[3,4-d]pyrimidin-2-yl)phenyl)urea] | < 5.00 | > 7.00 |
| CCNC(=O)Nc1ccc(-c2nc3c(c(N4CCOC[C@@H]4C)n2)CCNC3)c(F)c1 [Example 164, (S)-1-ethyl-3-(3-fluoro-4-(4-(3-methylmorpholino)-5,6,7,8-tetrahydropyrido[3,4-d]pyrimidin-2-yl)phenyl)urea] | < 5.00 | > 7.00 |
| C[C@H]1COCCN1c1nc(-c2ccc(NC(=O)NC3CC3)cc2F)nc2c1CCN(C(=O)N(C)C)C2 [Example 165, (S)-2-(4-(3-cyclopropylureido)-2-fluorophenyl)-N,N-dimethyl-4-(3-methylmorpholino)-5,6-dihydropyrido[3,4-d]pyrimidine-7(8H)-carboxamide] | < 5.00 | > 7.00 |

More lines, now with the values ahead:

| pIC50 [1] | pIC50 [2] | Structure (SMILES) |
| --- | --- | --- |
| < 5.00 | > 7.00 | CCOC(=O)N1Cc2nc(-c3ccc(NC(=O)NCCO)cc3F)nc(N3CCOC[C@@H]3C)c2C1 [Example 167, (S)-Ethyl 2-(2-fluoro-4-(3-(2-hydroxyethyl)ureido)phenyl)-4-(3-methylmorpholino)-5H-pyrrolo[3,4-d]pyrimidine-6(7H)-carboxylate] |
| < 5.00 | > 7.00 | CCOC(=O)N1Cc2nc(-c3ccc(NC(=O)NCCF)cc3F)nc(N3CCOC[C@@H]3C)c2C1 [Example 168, (S)-ethyl 2-(2-fluoro-4-(3-(2-fluoroethyl)ureido)phenyl)-4-(3-methylmorpholino)-5H-pyrrolo[3,4-d]pyrimidine-6(7H)-carboxylate] |
| < 5.00 | > 7.00 | COC(=O)N1Cc2nc(-c3ccc(NC(=O)NCCF)cc3F)nc(N3CCOCC3)c2C1 [Example 169, Methyl 2-(2-fluoro-4-(3-(2-fluoroethyl)ureido)phenyl)-4-morpholino-5H-pyrrolo[3,4-d]pyrimidine-6(7H)-carboxylate] |
| 5.00 to 6.00 | > 7.00 | CCOC(=O)N1Cc2nc(-c3ccc(NC(=O)NCCF)cc3F)nc(N3CCOCC3)c2C1 [Example 170, ethyl 2-(2-fluoro-4-(3-(2-fluoroethyl)ureido)phenyl)-4-morpholino-5H-pyrrolo[3,4-d]pyrimidine-6(7H)-carboxylate] |
| 5.00 to 6.00 | > 7.00 | CCOC(=O)N1Cc2nc(-c3ccc(NC(=O)NCCO)cc3F)nc(N3CCOCC3)c2C1 [Example 171, ethyl 2-(2-fluoro-4-(3-(2-hydroxyethyl)ureido)phenyl)-4-morpholino-5H-pyrrolo[3,4-d]pyrimidine-6(7H)-carboxylate] |
| 5.00 to 6.00 | > 7.00 | CC(C)N1Cc2nc(-c3ccc(NC(=O)NC4CC4)cc3F)nc(N3CCOC[C@@H]3C)c2C1 [Example 172, (S)-1-cyclopropyl-3-(3-fluoro-4-(6-isopropyl-4-(3-methylmorpholino)-6,7-dihydro-5H-pyrrolo[3,4-d]pyrimidin-2-yl)phenyl)urea] |
